# In patent US9242962B2, “Method of treatment” (GlaxoSmithKline Intellectual Property (No. 2) Limited, priority 2011, dated 2016):
# What was measured:
# CD4+ T cells [1] = test: T cell receptor-induced CD4+ T cell proliferation (CFSE, flow cytometry); assay type: cell-based, human; details: 10 μg/mL αCD3 + 2 μg/mL αCD28, 6 days; for IC50: Homo sapiens, CD4+ T, 144 h, division index by CFSE, n=4, ±sem, read-out: pIC50, T cell receptor-induced proliferation of CD4+ T cells (converted)
# Experimental: (§1) 15 mls ficoll was added to 8×50 mL accuspin tubes per donor and centrifuged at 2000 RPM for 1 min. Whole blood samples (200 mL+1% heparin) were collected from human donors. Approximately 25 ml blood was added to each ficoll pre-filled 50 ml falcon tubes with filter and centrifuged at 1500 RPM for 20 min with the brake off to avoid disturbing cell separation. 45 ml with PBS was added to the PBMC fraction of each tube and centrifuged at 1500 RPM for 10 min with brake. Supernatant were discarded and cell pellets resuspended in 2 ml PBS. Cell suspensions for each donor were recombined into a single falcon tube, made up to 45 ml with PBS and centrifuged at 1500 RPM for 10 min. CD4+ T cells were isolated by negative depletion using a CD4 T cell Isolation Kit from Miltenyi Biotech according to manufacturers protocol.
# 96-well flat-bottom plates were coated with 10 μg/mL anti-CD3+2 μg/mL anti-CD28 at 4° C. overnight. The following day, plates were washed with PBS. For proliferation studies, cells were stained with CFSE (Invitrogen) according to manufacturer's protocol. […] Cells were then transferred to 96-well round-bottom plates, washed and then analysed by flow cytometry.
# (§2) Anti-CD3 (HU CD3 NALE MAB UCHT1; Cat #555329) and anti-CD28 (HU CD28 NALE MAB CD28.2; Cat #: 555725), were obtained from BD Pharmingen and dissolved in Dulbecco's Phosphate Buffered Saline (with Ca2+/Mg2+; Gibco). Ficoll-paque (Cat #17-1440-03) was obtained from GE Healthcare. The CD4+ T cell isolation kit (Cat #130-091-155) was obtained from Miltenyi Biotec. Cells were cultured in RPMI 1640 containing 10% FCS+1% pen/strep+1% L-glutamine. The CellTrace CFSE cell proliferation kit (Cat #C34554) was obtained from Invitrogen. Compound A, Compound B and Compound C were all synthesised in house and dissolved in 100% DMSO.
# Flowjo Software was used to calculate a division index using fluorescence intensity. Data are expressed as mean±standard error of the mean; n values are the numbers of human donors used. pIC50 values were generated using GraphPad Prism software and non-linear sigmoid dose curve-fit.
# CD4+ T cells [2] = test: T cell receptor-induced cytokine production in CD4+ T cells (multiplex ELISA); assay type: cell-based, human; details: for IC50: Homo sapiens, CD4+ T, n=4, ±sem, read-out: pIC50, T cell receptor-induced production of IL-2 in CD4+ T cells (converted)
# Experimental: as §1
# 96-well flat-bottom plates were coated with 10 μg/mL anti-CD3+2 μg/mL anti-CD28 at 4° C. overnight. The following day, plates were washed with PBS. For cytokine production studies, cells were added to anti-CD3+anti-CD28 pre-coated 96-well plates at 0.4×10^6 cells/well in the presence of EZH1/EZH2 inhibitors or vehicle and incubated at 37° C./5% CO2. Supernatants were taken 18 h (IL-2) or 72 h (IL-10, IL-13, IL-17, IFN, TNF) for determination of cytokine production by multiplex ELISA from Mesoscale discovery according to the manufacturers protocols.
# as §2
# Data were analysed using Excel and are expressed as mean±standard error of the mean; n values are the numbers of human donors used. pIC50 values were generated using GraphPad Prism software and non-linear sigmoid dose curve-fit.
IC50 (CD4+ T cells [2]; 18 h post stimulation),SMILES,IC50 (CD4+ T cells [1]),effect on T cell receptor-induced proliferation of CD4+ T cells (CD4+ T cells [1]; n=4),"effect on T cell receptor-induced production of IL-2 in CD4+ T cells (CD4+ T cells [2]; 18 h post stimulation, n=4, a pIC50 could not be calculated)","effect on T cell receptor-induced production of IL-17 or IFN in CD4+ T cells (CD4+ T cells [2]; 72 h post stimulation, n=4)","effect on IL-10, IL-13 & TNF production (CD4+ T cells [2]; High concentrations (i.e. >15 μM), 72 h, n=4)"
0.575 µM,"CCCc1cc(C)[nH]c(=O)c1CNC(=O)c1cc(-c2ccc(N3CCN(C)CC3)nc2)cc2c1cnn2C(C)C [Compound A, 1-(1-methylethyl)-N-[(6-methyl-2-oxo-4-propyl-1,2-dihydro-3-pyridinyl)methyl]-6-[6-(4-methyl-1-piperazinyl)-3-pyridinyl]-1H-indazole-4-carboxamide]",5.01 µM,–,–,–,–
1.74 µM,"Cc1cc(C)c(CNC(=O)c2cc(-c3ccc(N4CCN(C)CC4)nc3)cc3c2c(C)cn3C(C)C)c(=O)[nH]1 [Compound B, N-[(4,6-dimethyl-2-oxo-1,2-dihydro-3-pyridinyl)methyl]-3-methyl-1-(1-methylethyl)-6-[6-(4-methyl-1-piperazinyl)-3-pyridinyl]-1H-indole-4-carboxamide]",11.7 µM,–,–,–,–
–,"Cc1ccc(CNC(=O)c2cc(C3CC3)nc3c2cnn3C(C)C)c(=O)[nH]1 [Compound C, 6-cyclopropyl-1-(1-methylethyl)-N-[(6-methyl-2-oxo-1,2-dihydro-3-pyridinyl)methyl]-1H-pyrazolo[3,4-b]pyridine-4-carboxamide]",–,had no effect,impaired,had no effect,reduced
